Source: patent EP0181109B1, “N6-benzopyrano- and benzothiopyrano-adenosines” (WARNER-LAMBERT COMPANY, priority 1984, dated 1986)

How the values were obtained:
[1] = test system: mice falling off the inverted screen; assay: Mouse Activity and Screen Test Procedure (MAST): screen test (ST); type: in vivo, Swiss-Webster male mice; details: one hour postinjection, percent of mice falling off the screen
From the text: The compounds of the invention are new chemical substances which are useful as pharmaceutical agents for the treatment of psychoses. The antipsychotic activity of representative compounds of the invention was established by the Mouse Activity and Screen Test Procedure (MAST) described below.
(§1) Nine unfasted Swiss-Webster male mice weighing 20-30 g are equally divided into three groups for each drug dose to be tested. There is, data for each dose level was generated by three separate groups of three mice each.
(§2) A minimum of three dose levels (10, 30, and 100 mg/kg) are tested for each drug. Treatments are administered intraperitoneally one hour prior to testing. All dosages are calculated as parent compound and given in volumes of 10 ml/kg. Compounds are dissolved or suspended in 0.2% Methocel. Control animals are injected with Methocel.
Testing: A two part testing procedure is started one hour postinjection. First, the screen test (ST) is performed (see Pharmac. Biochem. Behav. 6,351-353,1977). Briefly this test consists of placing mice on individual wire screens which are then rotated 180 degrees at the start of a 60 second observation period. The number of mice falling off the inverted screen is recorded.
(§3) Data: The data obtained from the screen test are expressed as percent of mice falling off the screen. Data derived from locomotor activity of drug treated mice are compared to the activity of vehicle treated animals and are expressed as percent inhibition of spontaneous locomotion. All percentages reported for inhibition of locomotion (LI) are based upon data accumulated for one hour. Both phases of testing are graded: A=60-100%; C=31-59%; and N=0-30%. An overall dose rating is obtained by the following criteria:
LAD refers to the lowest dose at which an A rating is achieved. […] Utilizing this procedure, an overall dose rating of A was obtained for the noted compound at the indicated dose. The compounds are identified in the Examples.

spontaneous locomotion = assay: Mouse Activity and Screen Test Procedure (MAST): locomotor activity in actophotometer; type: in vivo, Swiss-Webster male mice; details: one hour prior to testing
Description: as §1, §2
The actophotometer consists of a cylindrical chamber whose center is occupied by another cylinder which contains the illumination for six photocells located on the perimeter of the chamber. Six light-beam interruptions equal one count. Locomotor activity is recorded by computer at ten minute intervals for 60 minutes.
as §3, with “Both phases of testing are graded: A=60-100%; C=31-59%; and N=0-30%.” left out
LAD refers to the lowest dose at which an A rating is achieved. […] The compounds are identified in the Examples.

adenosine A1 receptor = target: T1, adenosine A1 receptor (Rattus norvegicus, UniProt P25099); assay: Adenosine Receptor Binding - A1 Receptor Affinity (RBA 1), [3H]-CHA displacement; details: rat whole brain membranes, 1.0 nM [3H]-CHA, one hour at 25°C
T1 construct: Whole brain minus cerebellum and brainstem from male Long Evans rats (150-200 g) was homogenized; from tissue; host or cells: rat whole brain minus cerebellum and brainstem (membrane homogenate)
T1 sequence (P25099 1-326): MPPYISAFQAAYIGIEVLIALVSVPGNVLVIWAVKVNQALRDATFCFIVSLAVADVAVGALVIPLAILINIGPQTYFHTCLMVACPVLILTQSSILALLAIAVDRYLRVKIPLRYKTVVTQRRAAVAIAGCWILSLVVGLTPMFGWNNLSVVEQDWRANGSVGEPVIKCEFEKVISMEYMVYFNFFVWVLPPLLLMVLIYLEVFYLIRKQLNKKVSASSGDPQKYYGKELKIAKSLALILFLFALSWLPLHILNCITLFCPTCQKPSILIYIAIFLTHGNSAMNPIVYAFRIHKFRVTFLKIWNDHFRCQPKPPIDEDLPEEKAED
Description: Whole brain minus cerebellum and brainstem from male Long Evans rats (150-200 g) was homogenized in 30 volumes of ice-cold 0.05 M Tris-HCI buffer pH 7.7 using a Brinkman Polytron PT-10, (setting number 6 for 20 seconds) and centrifuged for ten minutes at 20,000 x g (Sorvall RC-2), 4°C. The supernatant was discarded, and the pellet was resuspended and centrifuged as before. The pellet was resuspended in 20 ml Tris-HCI buffer containing two International Units/ml of adenosine deaminase (Sigma Type III from calf intestinal mucosa), incubated at 37°C for 30 minutes, then subsequently at 0°C for ten minutes. The homogenate was again centrifuged, and the final pellet was resuspended in ice-cold 0.05 M Tris-HCI buffer pH 7.7 to a concentration of 20 mg/ml original wet tissue weight and used immediately.
Tissue homogenate (10 mg/ml) was incubated in 0.05 M Tris-HCI buffer pH 7.7 containing 1.0 nM [^3H]-N^6-cyclohexyladenosine (^3H]-CHA) with or without test agents in triplicate for one hour at 25°C. Incubation volume was 2 ml. Unbound [^3H]-CHA was separated by rapid filtration under reduced pressure through Whatman glass fiber (GF/B) filters. The filters were rinsed three times with 5 ml of ice cold 0.05 M Tris-HCI buffer pH 7.7. The radio-labele ligand retained on the filter was measured by liquid scintillation spectrophotometry after shaking the filters for one hour or longer on a mechanical shaker in 10 ml of Beckman Ready-Solv HP scintillation cocktail.
Nonspecific binding was defined as the binding which occurred in the presence of 1 mM theophylline. The concentration of test agent which inhibited 50% of the specific binding (IC50) was determined by nonlinear computer curve fit. The Scatchard plot was calculated by linear regression of the line obtained by plotting the amount of radioligand bound (pmoles/gram of tissue) versus
• bound radioligand • free radioligand Since the amount of radioligand bound was a small fraction of the total amount added, free radioligand was defined as the concentration (nM) of radioligand added to the incubation mixture. The Hill coefficient was calculated by linear regression of the line obtained by plotting the log of the bound radioligand vs the log of the • bound radioligand • Bmax - bound radioligand • The maximal number of binding sites (Bmax) was calculated from the Scatchard plot.

Row | Compound | Screen Test Failure ([1]; 10 mg/kg intraperitoneally) | Screen Test Failure ([1]; 30 mg/kg intraperitoneally) | Screen Test Failure ([1]; 100 mg/kg intraperitoneally) | Inhibition of Mouse Locomotion Activity (spontaneous locomotion; 10 mg/kg intraperitoneally) | Inhibition of Mouse Locomotion Activity (spontaneous locomotion; 30 mg/kg intraperitoneally) | Inhibition of Mouse Locomotion Activity (spontaneous locomotion; 100 mg/kg intraperitoneally) | IC50 (adenosine A1 receptor) | Screen Test Failure ([1]; 3 mg/kg intraperitoneally) | Inhibition of Mouse Locomotion Activity (spontaneous locomotion; 3 mg/kg intraperitoneally)
1 | CC(C)(C)c1ccc2c(c1)OCC(Nc1ncnc3c1ncn3[C@@H]1O[C@H](CO)[C@@H](O)[C@H]1O)C2 (stereo partly shown) [Example 13, N^6-[7-t-Butyl-3-chromanylamino)adenosine] | 0% | 0% | 22% | 50% | 82% | 88% | 160 nM |  | 
2 | COc1cc(OC)c2c(c1)OC(C)(C)CC2Nc1ncnc2c1ncn2[C@@H]1O[C@H](CO)[C@@H](O)[C@H]1O (stereo partly shown) [Example 14] | 0% | 0% | 0% | 8% | 13% | 2% | 4930 nM |  | 
3 | OC[C@H]1O[C@@H](n2cnc3c(NC4CCSc5ccccc54)ncnc32)[C@H](O)[C@@H]1O (stereo partly shown) [Example 15] | 22% | 55% |  | 95% | 97% |  | 56.2 nM | 11% | 88%
4 | O=S1(=O)CCC(Nc2ncnc3c2ncn3[C@@H]2O[C@H](CO)[C@@H](O)[C@H]2O)c2ccccc21 (stereo partly shown) [Example 16, N^6-[4-Benzothiopyran-1,1-dioxideamino]adenosine] | 22% | 55% |  | 69% | 98% |  | 622 nM | 0% | 15%
